# In patent US7163923B2, “Peptide deformylase activated prodrugs” (Celmed Oncology (USA), Inc., priority 2001, dated 2007):
# Where two headings read alike, the source gives them in different places.
# Columns and labels:
# Assay in all cases: MIC susceptibility testing (modified NCCLS, 384-well)
# Type in all cases: cell-based
# [1] = tested on: H. influenzae; conditions: Haemophilus influenzae
# Description: (§1) The NCCLS (National Committee for Clinical Laboratory Standards), method to determine MIC's of antimicrobial compounds is modified for high-throughput screening. All stocks of tested compounds are prepared in either water or in DMSO depending on solubility. At the highest concentration, DMSO content should not exceed 0.5%. Briefly, twenty 2-fold serial dilutions of test compounds from the highest concentration are made in a 384-well microtiter plate. […] Bacterial growth is determined by the increase of optical density at 600 nm using a microplate reader (Tecan SpectraFluor Plus).
# [2] = tested on: K. pneumoniae; conditions: Klebsiella pneumoniae
# Description: as §1
# [3] = tested on: P. aeruginosa; conditions: Pseudomonas aeruginosa
# Description: as §1
# [4] = tested on: S. epidermidis; conditions: Staphylococcus epidermidis
# Description: as §1
# [5] = tested on: E. cloacae; conditions: Enterobacter cloacae
# Description: as §1
# [6] = tested on: E. aerogenes; conditions: Klebsiella aerogenes
# Description: as §1
# [7] = tested on: M. catarrhalis
# Description: as §1
# [8] = tested on: E. faecalis; conditions: Enterococcus faecalis
# Description: as §1
smiles,measurement,setting,value
"CSCCC(NC=O)C(=O)NC(CC(C)C)C(=O)Oc1cc(Cl)ccc1Oc1ccc(Cl)cc1Cl (stereo not drawn) [NB2046, 2-(2-formylamino-4-methylsulfanyl-butyrylamino)-4-methyl-pentanoic acid 5-chloro-2-(2,4-dichloro-phenoxy)-phenyl ester]",MIC,"[1]; ATCC33533, H. influenzae ATCC 33533, Exp. #1, Table 4",64 µg/mL
same,MIC,"[1]; ATCC33533, H. influenzae ATCC 33533, Exp. #2, Table 4",≥ 64 µg/mL
same,MIC,"[2]; ATCC51503, K. pneumoniae ATCC 51503, Exp. #1, Table 3",8 µg/mL
same,MIC,"[2]; ATCC51503, K. pneumoniae ATCC 51503, Exp. #1, Table 4",4 µg/mL
same,MIC,"[2]; ATCC51503, K. pneumoniae ATCC 51503, Exp. #2, Table 3",8 µg/mL
same,MIC,"[2]; ATCC51503, K. pneumoniae ATCC 51503, Exp. #2, Table 4",8 µg/mL
same,MIC,"[2]; ATCC51504, K. pneumoniae ATCC 51504, Exp. #1, Table 3",1 µg/mL
same,MIC,"[2]; ATCC51504, K. pneumoniae ATCC 51504, Exp. #2, Table 3",2 µg/mL
same,MIC,"[2]; ATCC700721, K. pneumoniae ATCC 700721, Exp. #1, Table 3",2 µg/mL
same,MIC,"[2]; ATCC700721, K. pneumoniae ATCC 700721, Exp. #1, Table 4",4 µg/mL
same,MIC,"[2]; ATCC700721, K. pneumoniae ATCC 700721, Exp. #2, Table 3",2 µg/mL
same,MIC,"[2]; ATCC700721, K. pneumoniae ATCC 700721, Exp. #2, Table 4",8 µg/mL
same,MIC,"[3]; ATCC21726, P. aeruginosa ATCC 21726, Exp. #1, Table 4",> 64 µg/mL
same,MIC,"[3]; ATCC21726, P. aeruginosa ATCC 21726, Exp. #2, Table 4",≥ 64 µg/mL
same,MIC,"[3]; ATCC29872, P. aeruginosa ATCC 29872, Exp. #1, Table 4",> 64 µg/mL
same,MIC,"[3]; ATCC29872, P. aeruginosa ATCC 29872, Exp. #2, Table 4",≥ 64 µg/mL
same,MIC,"[4]; ATCC27626, S. epidermidis ATCC 27626, Exp. #1, Table 3",≤ 0.125 µg/mL
same,MIC,"[4]; ATCC27626, S. epidermidis ATCC 27626, Exp. #2, Table 3",≤ 0.125 µg/mL
same,MIC,"[4]; ATCC700565, S. epidermidis ATCC 700565, Exp. #1, Table 3",2 µg/mL
same,MIC,"[4]; ATCC700565, S. epidermidis ATCC 700565, Exp. #2, Table 3",2 µg/mL
same,MIC,"[4]; ATCC700566, S. epidermidis ATCC 700566, Exp. #1, Table 3",≤ 0.125 µg/mL
same,MIC,"[4]; ATCC700566, S. epidermidis ATCC 700566, Exp. #2, Table 3",≤ 0.125 µg/mL
same,MIC,"[4]; ATCC700578, S. epidermidis ATCC 700578, Exp. #1, Table 3",0.5 µg/mL
same,MIC,"[4]; ATCC700578, S. epidermidis ATCC 700578, Exp. #2, Table 3",0.25 µg/mL
same,MIC,"[4]; ATCC700583, S. epidermidis ATCC 700583, Exp. #1, Table 3",≤ 0.125 µg/mL
same,MIC,"[4]; ATCC700583, S. epidermidis ATCC 700583, Exp. #2, Table 3",≤ 0.125 µg/mL
same,MIC,"[5]; ATCC23355, E. cloacae ATCC 23355, Exp. #1, Table 3",0.5 µg/mL
same,MIC,"[5]; ATCC23355, E. cloacae ATCC 23355, Exp. #1, Table 4",16 µg/mL
same,MIC,"[5]; ATCC23355, E. cloacae ATCC 23355, Exp. #2, Table 3",0.5 µg/mL
same,MIC,"[5]; ATCC23355, E. cloacae ATCC 23355, Exp. #2, Table 4",1 µg/mL
same,MIC,"[6]; ATCC13048, E. aerogenes ATCC 13048, Exp. #1, Table 3",1 µg/mL
same,MIC,"[6]; ATCC13048, E. aerogenes ATCC 13048, Exp. #2, Table 3",1 µg/mL
same,MIC,"[6]; ATCC29009, E. aerogenes ATCC 29009, Exp. #1, Table 3",0.25 µg/mL
same,MIC,"[6]; ATCC29009, E. aerogenes ATCC 29009, Exp. #2, Table 3",≤ 0.125 µg/mL
same,MIC,"[6]; ATCC29751, E. aerogenes ATCC 29751, Exp. #1, Table 3",2 µg/mL
same,MIC,"[6]; ATCC29751, E. aerogenes ATCC 29751, Exp. #2, Table 3",1 µg/mL
same,MIC,"[6]; ATCC35028, E. aerogenes ATCC 35028, Exp. #1, Table 3",4 µg/mL
same,MIC,"[6]; ATCC35028, E. aerogenes ATCC 35028, Exp. #1, Table 4",32 µg/mL
same,MIC,"[6]; ATCC35028, E. aerogenes ATCC 35028, Exp. #2, Table 3",2 µg/mL
same,MIC,"[6]; ATCC35028, E. aerogenes ATCC 35028, Exp. #2, Table 4",16 µg/mL
same,MIC,"[7]; M. catarrhalis ATCC 43627, Exp. #2, Table 3",≦0.125 μg/ml
same,MIC,"[7]; M. catarrhalis ATCC 43628, Exp. #2, Table 3",≦0.125 μg/ml
same,MIC,"[7]; M. catarrhalis ATCC 49265, Exp. #2, Table 3",≦0.125 μg/ml
same,MIC,"[7]; M. catarrhalis ATCC 51584, Exp. #2, Table 3",≦0.125 μg/ml
same,MIC,"[7]; Moraxella catarrhalis, ATCC43627, M. catarrhalis ATCC 43627, Exp. #1, Table 3, read-out: MIC",≤ 0.125 µg/mL
same,MIC,"[7]; Moraxella catarrhalis, ATCC43628, M. catarrhalis ATCC 43628, Exp. #1, Table 3, read-out: MIC",≤ 0.125 µg/mL
same,MIC,"[7]; Moraxella catarrhalis, ATCC49265, M. catarrhalis ATCC 49265, Exp. #1, Table 3, read-out: MIC",≤ 0.125 µg/mL
same,MIC,"[7]; Moraxella catarrhalis, ATCC51584, M. catarrhalis ATCC 51584, Exp. #1, Table 3, read-out: MIC",≤ 0.125 µg/mL
same,MIC,"[8]; ATCC49757, E. faecalis ATCC 49757, Exp. #1, Table 4",64 µg/mL
same,MIC,"[8]; ATCC49757, E. faecalis ATCC 49757, Exp. #2, Table 4",32 µg/mL
same,MIC,"[8]; ATCC700802, E. faecalis ATCC 700802, Exp. #1, Table 4",32 µg/mL
